Laboratory results from patent publication EP4417602A1, “SUBSTITUTED PYRAZOLE CARBOXAMIDES, SALTS THEREOF AND THEIR USE AS HERBICIDALLY ACTIVE SUBSTANCES” (Bayer AG, priority 2023, dated 2024).

Assays:
DIGSA [1] = assay: A. Herbicidal pre-emergence action on harmful plants (Tables A); type: in vivo, Digitaria sanguinalis
Outline: (§1)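 Greenhouse pre-emergence test: compound applied to the soil surface at 1280 g/ha or below, and herbicidal effect rated visually at ca. 3 weeks on a 0–100% scale against untreated plants.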

MATIN = assay: as above; type: in vivo, Matricaria inodora; conditions: visual grading after ca. 3 weeks vs untreated controls, 100% = plants have died off, 0% = as control plants
Outline: as §1

STEME [2] = assay: as above; type: in vivo, Stellaria media; conditions: visual grading after ca. 3 weeks vs untreated controls, 100% = plants have died off, 0% = as control plants
Outline: as §1

ALOMY = assay: as above; type: in vivo, Alopecurus myosuroides; conditions: application rate 1280 g/ha; Table A9a
Text: (§2) Seeds of mono- and dicotyledonous weed plants were sown in plastic pots (double sowings with one species of mono- and one species of dicotyledonous weed plants per pot), in sandy loam, and covered with soil. The compounds according to the invention, formulated in the form of wettable powders (WP) or as emulsifiable concentrates (EC), were applied to the surface of the covering soil as aqueous suspension or emulsion, with the addition of 0.5% of an additive, at an application rate of 6001 of water per hectare (converted). Following treatment, the pots were placed in a greenhouse and kept under optimum growth conditions for the test plants. The visual grading of the damage to the test plants was carried out after ca. 3 weeks in comparison to untreated controls (herbicidal effect in percent (%): 100% effect = plants have died off, 0% effect = as control plants). Tables A1 to A12, below, show the effects of selected compounds of the general formula (I) according to table 1 on various harmful plants and an application rate corresponding to 1280 g/ha or below obtained by the experimental procedure mentioned above. Table A1: pre-emergence activity at 1280g/ha against ABUTH in %

DIGSA [3] = assay: B. Herbicidal post-emergence action on harmful plants (Tables B); type: in vivo, Digitaria sanguinalis; conditions: application rate 1280 g/ha; Table B12a
Procedure: (§3) Seeds of mono- and dicotyledonous weed plants were placed in plastic pots in sandy loam soil (doubly sown with in each case one species of mono- or dicotyledonous weed plants per pot), covered with soil and cultivated in a greenhouse under controlled growth conditions. 2 to 3 weeks after sowing, the test plants were treated at the one-leaf stage. The compounds of the invention, formulated in the form of wettable powders (WP) or as emulsion concentrates (EC), were applied onto the green parts of the plants as aqueous suspension or emulsion with addition of 0.5% additive at a water application rate of 600 liters per hectare (converted). After the test plants had been kept in the greenhouse under optimum growth conditions for about 3 weeks, the activity of the preparations was rated visually in comparison to untreated controls. For example, 100% activity = the plants have died, 0% activity = like control plants. Tables B1 to B12, below, show the effects of selected compounds of the general formula (I) according to table 1 on various harmful plants and an application rate corresponding to 1280 g/ha or below obtained by the experimental procedure mentioned above. Table B1a: post-emergence activity at 1280g/ha against ABUTH in %

ECHCG [4] = assay: A. Herbicidal pre-emergence action on harmful plants (Tables A); type: in vivo, Echinochloa crus-galli; conditions: visual grading after ca. 3 weeks vs untreated controls, 100% = plants have died off, 0% = as control plants
Outline: as §1

ECHCG [5] = assay: B. Herbicidal post-emergence action on harmful plants (Tables B); type: in vivo, Echinochloa crus-galli; conditions: application rate 1280 g/ha; Table B2a
Procedure: as §3

LOLRI = assay: A. Herbicidal pre-emergence action on harmful plants (Tables A); type: in vivo, Lolium rigidum; conditions: visual grading after ca. 3 weeks vs untreated controls, 100% = plants have died off, 0% = as control plants
Outline: as §1

POAAN [6] = assay: as above; type: in vivo, Poa annua
Outline: as §1

SETVI = assay: as above; type: in vivo, Setaria viridis; conditions: visual grading after ca. 3 weeks vs untreated controls, 100% = plants have died off, 0% = as control plants
Outline: as §1

POAAN [7] = assay: B. Herbicidal post-emergence action on harmful plants (Tables B); type: in vivo, Poa annua; conditions: application rate 1280 g/ha; Table B7a
Outline: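 Activity was scored visually as % damage (100% = dead, 0% = like untreated) about 3 weeks after treatment. Plants at the one-leaf stage, 2-3 weeks old, were sprayed with WP/EC formulations plus 0.5% additive (600 L/ha water, up to 1280 g/ha). Plants were grown in sandy loam in a greenhouse.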

VERPE = assay: as above; type: in vivo, Veronica persica; conditions: application rate 1280 g/ha; Table B11a
Procedure: as §3

ABUTH = assay: as above; type: in vivo, Abutilon theophrasti; conditions: application rate 1280 g/ha; Table B1a
Procedure: as §3

STEME [8] = assay: as above; type: in vivo, Stellaria media; conditions: application rate 1280 g/ha; Table B6
Procedure: as §3

AMARE [9] = assay: as above; type: in vivo, Amaranthus retroflexus; conditions: application rate 1280 g/ha; Table B8
Procedure: as §3

AMARE [10] = assay: A. Herbicidal pre-emergence action on harmful plants (Tables A); type: in vivo, Amaranthus retroflexus
Text: as §2

[11] = application rate 320 g/ha, Table A12b
[12] = application rate 1280 g/ha, Table A12a
[13] = application rate 80 g/ha, Table A7c
[14] = application rate 320 g/ha, Table A7b
[15] = application rate 1280 g/ha, visual grading after ca. 3 weeks vs untreated controls, 100% = plants have died off, 0% = as control plants

For `C=CCn1cc(C(=O)N2CCCC2Cc2ccccc2F)c(COC)n1` (racemic) [Example I-039], the “pre-emergence activity against DIGSA” value (DIGSA [1]; [11]) was 90%, the “pre-emergence activity against DIGSA” value (DIGSA [1]; [12]) was 90% and the “pre-emergence activity against MATIN” value (MATIN; application rate 1280 g/ha) was 90%. The “pre-emergence activity against STEME” value (STEME [2]; application rate 1280 g/ha) was 90%, the “pre-emergence activity against ALOMY” value (ALOMY) was 90% and the “post-emergence activity against DIGSA” value (DIGSA [3]) was 90%. For the same compound, the “pre-emergence activity against ECHCG” value (ECHCG [4]; application rate 1280 g/ha) was 90%, the “post-emergence activity against ECHCG” value (ECHCG [5]) was 90% and the “pre-emergence activity against LOLRI” value (LOLRI; application rate 320 g/ha) was 90%. For the same compound, the “pre-emergence activity against LOLRI” value (LOLRI; application rate 1280 g/ha) was 90%, the “pre-emergence activity against POAAN” value (POAAN [6]; [13]) was 90% and the “pre-emergence activity against POAAN” value (POAAN [6]; [14]) was 100%. For the same compound, the “pre-emergence activity against POAAN” value (POAAN [6]; [15]) was 100%, the “pre-emergence activity against SETVI” value (SETVI; application rate 320 g/ha) was 90% and the “pre-emergence activity against SETVI” value (SETVI; application rate 1280 g/ha) was 90%.
In the case of `COCc1nn(C)cc1C(=O)N1CCCC1Cc1ccccc1C` (racemic) [Example I-078], the “pre-emergence activity against DIGSA” value (DIGSA [1]; [11]) is reported as 90%, the “pre-emergence activity against DIGSA” value (DIGSA [1]; [12]) is reported as 90% and the “pre-emergence activity against MATIN” value (MATIN; application rate 320 g/ha) is reported as 90%. For the same compound, the “pre-emergence activity against MATIN” value (MATIN; application rate 1280 g/ha) was 90%, the “post-emergence activity against POAAN” value (POAAN [7]) was 90% and the “pre-emergence activity against STEME” value (STEME [2]; application rate 80 g/ha) was 90%. For the same compound, the “pre-emergence activity against STEME” value (STEME [2]; application rate 320 g/ha) was 90%, the “pre-emergence activity against STEME” value (STEME [2]; application rate 1280 g/ha) was 90% and the “pre-emergence activity against ALOMY” value (ALOMY) was 90%. The “post-emergence activity against VERPE” value (VERPE) was 90%, the “pre-emergence activity against ECHCG” value (ECHCG [4]; application rate 320 g/ha) was 90% and the “pre-emergence activity against ECHCG” value (ECHCG [4]; application rate 1280 g/ha) was 100%. For the same compound, the “post-emergence activity against ABUTH” value (ABUTH) was 90%, the “post-emergence activity against ECHCG” value (ECHCG [5]) was 90% and the “pre-emergence activity against LOLRI” value (LOLRI; application rate 320 g/ha) was 100%. The “pre-emergence activity against LOLRI” value (LOLRI; application rate 1280 g/ha) was 100%, the “pre-emergence activity against POAAN” value (POAAN [6]; [14]) was 100% and the “pre-emergence activity against POAAN” value (POAAN [6]; [15]) was 100%. For the same compound, the “pre-emergence activity against SETVI” value (SETVI; application rate 320 g/ha) was 90% and the “pre-emergence activity against SETVI” value (SETVI; application rate 1280 g/ha) was 100%.
`CCOCc1nn(C)cc1C(=O)N1CCC1Cc1ccccc1F` (racemic) [Example I-105] was tested, and the “pre-emergence activity against DIGSA” value (DIGSA [1]; [11]) was 100%, the “pre-emergence activity against DIGSA” value (DIGSA [1]; [12]) was 100% and the “post-emergence activity against POAAN” value (POAAN [7]) was 90%. For the same compound, the “post-emergence activity against STEME” value (STEME [8]) was 90%, the “pre-emergence activity against ECHCG” value (ECHCG [4]; application rate 320 g/ha) was 90% and the “pre-emergence activity against ECHCG” value (ECHCG [4]; application rate 1280 g/ha) was 100%. The “pre-emergence activity against LOLRI” value (LOLRI; application rate 1280 g/ha) was 90%, the “pre-emergence activity against POAAN” value (POAAN [6]; [15]) was 100% and the “post-emergence activity against AMARE” value (AMARE [9]) was 90%. For the same compound, the “pre-emergence activity against SETVI” value (SETVI; application rate 1280 g/ha) was 100%.
`Cn1cc(C(=O)N2CCC2Cc2c(F)cccc2Cl)c(COCC(F)F)n1` (racemic) [Example I-107] was tested, and the “pre-emergence activity against DIGSA” value (DIGSA [1]; [11]) was 90%, the “pre-emergence activity against DIGSA” value (DIGSA [1]; [12]) was 100% and the “pre-emergence activity against MATIN” value (MATIN; application rate 1280 g/ha) was 100%. For the same compound, the “post-emergence activity against STEME” value (STEME [8]) was 90%, the “pre-emergence activity against STEME” value (STEME [2]; application rate 1280 g/ha) was 90% and the “post-emergence activity against VERPE” value (VERPE) was 90%. The “pre-emergence activity against ECHCG” value (ECHCG [4]; application rate 320 g/ha) was 90%, the “pre-emergence activity against ECHCG” value (ECHCG [4]; application rate 1280 g/ha) was 100% and the “pre-emergence activity against LOLRI” value (LOLRI; application rate 1280 g/ha) was 90%. For the same compound, the “pre-emergence activity against POAAN” value (POAAN [6]; [14]) was 100%, the “pre-emergence activity against POAAN” value (POAAN [6]; [15]) was 100% and the “post-emergence activity against AMARE” value (AMARE [9]) was 90%. The “pre-emergence activity against SETVI” value (SETVI; application rate 1280 g/ha) was 100%.
With `COCc1nn(C)cc1C(=O)N1CCCC1Cc1c(F)cccc1Cl` (single isomer, unassigned) [Example I-087] the “pre-emergence activity against DIGSA” value (DIGSA [1]; application rate 80 g/ha, Table A12c) was 90%, the “pre-emergence activity against DIGSA” value (DIGSA [1]; [11]) was 100% and the “pre-emergence activity against DIGSA” value (DIGSA [1]; [12]) was 100%. For the same compound, the “pre-emergence activity against MATIN” value (MATIN; application rate 320 g/ha) was 90%, the “pre-emergence activity against MATIN” value (MATIN; application rate 1280 g/ha) was 90% and the “post-emergence activity against STEME” value (STEME [8]) was 90%. The “pre-emergence activity against STEME” value (STEME [2]; application rate 320 g/ha) was 90%, the “pre-emergence activity against STEME” value (STEME [2]; application rate 1280 g/ha) was 90% and the “pre-emergence activity against ALOMY” value (ALOMY) was 90%. For the same compound, the “pre-emergence activity against ECHCG” value (ECHCG [4]; application rate 80 g/ha) was 90%, the “pre-emergence activity against ECHCG” value (ECHCG [4]; application rate 320 g/ha) was 100% and the “pre-emergence activity against ECHCG” value (ECHCG [4]; application rate 1280 g/ha) was 100%. The “pre-emergence activity against AMARE” value (AMARE [10]; application rate 320 g/ha, Table A8b) was 90%, the “pre-emergence activity against AMARE” value (AMARE [10]; [15]) was 90% and the “pre-emergence activity against LOLRI” value (LOLRI; application rate 80 g/ha) was 100%. The “pre-emergence activity against LOLRI” value (LOLRI; application rate 320 g/ha) was 100%, the “pre-emergence activity against LOLRI” value (LOLRI; application rate 1280 g/ha) was 100% and the “pre-emergence activity against POAAN” value (POAAN [6]; [13]) was 100%. The “pre-emergence activity against POAAN” value (POAAN [6]; [14]) was 100%, the “pre-emergence activity against POAAN” value (POAAN [6]; [15]) was 100% and the “post-emergence activity against AMARE” value (AMARE [9]) was 90%. The “pre-emergence activity against SETVI” value (SETVI; application rate 80 g/ha) was 100%, the “pre-emergence activity against SETVI” value (SETVI; application rate 320 g/ha) was 100% and the “pre-emergence activity against SETVI” value (SETVI; application rate 1280 g/ha) was 100%.
